Active and inactive are the calls of the source.
Experiments:
Format in all cases: functional
Aurora kinase A = Aurora kinase A (Homo sapiens, UniProt O14965);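 further: value from the Navigating the Kinome kinase panel profiling, panel entry STK6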
Aurora kinase B = Aurora kinase B (Homo sapiens, UniProt Q96GD4)
[1] = molecular target: Melanin-concentrating hormone receptor 1 (Homo sapiens, UniProt Q99705); experiment: Late-stage fluorescence-based counterscreen for antagonists of the G-protein coupled receptor 7 (GPR7): cell-based dose response assay to identify antagonists of the melanin-concentrating hormone receptor 1 (MCHR1) Set 6.
Melanin-concentrating hormone receptor 1, sequence (Q99705 whole entry): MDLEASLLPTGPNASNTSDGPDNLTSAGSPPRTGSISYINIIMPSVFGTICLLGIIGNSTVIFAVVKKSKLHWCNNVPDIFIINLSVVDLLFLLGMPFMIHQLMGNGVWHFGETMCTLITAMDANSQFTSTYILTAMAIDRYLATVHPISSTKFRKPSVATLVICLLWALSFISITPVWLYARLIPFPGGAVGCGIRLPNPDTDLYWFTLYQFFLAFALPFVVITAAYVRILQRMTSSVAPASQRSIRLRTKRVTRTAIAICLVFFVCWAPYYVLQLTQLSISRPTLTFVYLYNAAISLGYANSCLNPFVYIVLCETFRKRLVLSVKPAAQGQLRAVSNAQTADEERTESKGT

[2] = molecular target: T1, Neuropeptides B/W receptor type 1 (Homo sapiens, UniProt P48145); experiment: GPR7 antagonist potency, late-stage follow-up, cell-based, fluorescence, dose response, set 6 (AID 588583)
T1 sequence (P48145 whole entry): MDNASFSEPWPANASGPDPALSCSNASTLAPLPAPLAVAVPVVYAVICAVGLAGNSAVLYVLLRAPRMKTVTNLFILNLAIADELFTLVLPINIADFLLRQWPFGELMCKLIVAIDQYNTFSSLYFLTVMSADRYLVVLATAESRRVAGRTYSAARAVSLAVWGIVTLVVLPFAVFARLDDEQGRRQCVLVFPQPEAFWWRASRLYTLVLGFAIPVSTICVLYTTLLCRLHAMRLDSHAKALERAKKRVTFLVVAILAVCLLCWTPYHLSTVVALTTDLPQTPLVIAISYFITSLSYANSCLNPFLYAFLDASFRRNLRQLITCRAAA

CHO-K1 = experiment: (§1) Counterscreen for antagonists of the orexin 1 receptor (OX1R; HCRTR1): Homogeneous time resolved fluorescence (HTRF)-based cell-based dose response assay to identify antagonists of the parental CHO-K1 cell line. [Related pubchem assays (depositor defined):AID434989, AID435008, AID463079, AID485270, AID492963, AID492964, AID492965, AID493232, AID504699, AID504701]; settings: Cricetulus griseus
[3] = as §1, with “Fluorescence-based” for “Homogeneous time resolved fluorescence (HTRF)-based”, “cell-based high throughput” for “cell-based”, “CHO” for “CHO-K1”
[4] = molecular target: T2, Orexin/Hypocretin receptor type 1 (Homo sapiens, UniProt O43613); experiment: Homogeneous Time Resolved Fluorescence (HTRF)-based cell-based high throughput dose response assay for antagonists of the orexin 1 receptor (OX1R; HCRTR1). [Related pubchem assays (depositor defined):AID434989, AID435008, AID463079, AID485270, AID492963, AID492964, AID492965, AID493232, AID504717, AID504718]
T2 sequence (O43613 whole entry): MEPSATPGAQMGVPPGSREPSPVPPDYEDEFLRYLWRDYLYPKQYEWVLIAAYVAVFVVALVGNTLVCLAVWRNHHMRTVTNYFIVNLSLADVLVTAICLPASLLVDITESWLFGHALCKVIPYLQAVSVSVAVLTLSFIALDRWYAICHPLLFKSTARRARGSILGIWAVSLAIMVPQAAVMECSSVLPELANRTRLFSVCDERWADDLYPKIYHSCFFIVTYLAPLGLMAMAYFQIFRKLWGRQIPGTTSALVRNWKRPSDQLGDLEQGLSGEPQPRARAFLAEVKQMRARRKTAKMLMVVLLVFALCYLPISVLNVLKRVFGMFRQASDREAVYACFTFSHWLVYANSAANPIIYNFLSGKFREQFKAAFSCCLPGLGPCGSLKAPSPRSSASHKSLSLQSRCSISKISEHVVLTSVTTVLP

[5] = molecular target: T2, Orexin/Hypocretin receptor type 1; experiment: Fluorescence-based cell-based high throughput dose response assay for antagonists of the orexin 1 receptor (OX1R; HCRTR1). [Related pubchem assays (depositor defined):AID434989, AID435008, AID463079, AID485270, AID492963, AID492964, AID492965, AID493232, AID504717, AID504718]
Orexin receptor type 2 [6] = molecular target: T3, Orexin receptor type 2 (Homo sapiens, UniProt O43614); experiment: Counterscreen assay for antagonists of the orexin 1 receptor (OX1R; HCRTR1): Fluorescence-based cell-based dose response assay for antagonists of the orexin 2 receptor (OX2R; HCRTR2), run by assay provider.
T3 sequence (O43614 whole entry): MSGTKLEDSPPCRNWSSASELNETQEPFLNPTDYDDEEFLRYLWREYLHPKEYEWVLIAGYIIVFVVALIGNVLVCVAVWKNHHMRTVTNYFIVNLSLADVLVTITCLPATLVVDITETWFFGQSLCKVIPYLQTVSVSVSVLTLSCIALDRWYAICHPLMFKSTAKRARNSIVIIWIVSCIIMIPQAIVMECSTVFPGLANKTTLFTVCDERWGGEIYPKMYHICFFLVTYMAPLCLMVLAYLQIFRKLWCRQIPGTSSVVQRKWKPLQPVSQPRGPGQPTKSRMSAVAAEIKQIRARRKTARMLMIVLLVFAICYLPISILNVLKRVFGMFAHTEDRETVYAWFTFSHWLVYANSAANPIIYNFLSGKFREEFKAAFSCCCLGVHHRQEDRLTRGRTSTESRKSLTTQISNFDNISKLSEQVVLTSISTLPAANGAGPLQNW

Orexin receptor type 2 [7] = molecular target: T3, Orexin receptor type 2; experiment: Counterscreen assay for antagonists of the orexin 1 receptor (OX1R; HCRTR1): Homogeneous Time Resolved Fluorescence (HTRF)-based cell-based dose response assay for antagonists of the orexin 2 receptor (OX2R; HCRTR2), run by assay provider.
Caspase-3 = molecular target: T4, Caspase-3 (Homo sapiens, UniProt P42574); experiment: caspase-3 inhibitors as off-family protease, SAR follow-up, selectivity assay for SENP protease inhibitor project, biochemical, luminescence, set 2 (AID 588599)
T4 sequence (P42574 whole entry): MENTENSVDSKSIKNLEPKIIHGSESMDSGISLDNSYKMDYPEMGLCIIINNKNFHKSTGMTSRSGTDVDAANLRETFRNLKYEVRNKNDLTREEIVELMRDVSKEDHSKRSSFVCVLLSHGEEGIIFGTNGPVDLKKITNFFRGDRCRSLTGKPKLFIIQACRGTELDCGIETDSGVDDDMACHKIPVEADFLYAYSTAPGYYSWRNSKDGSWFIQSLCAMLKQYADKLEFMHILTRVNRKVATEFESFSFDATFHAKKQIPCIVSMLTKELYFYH

[8] = molecular target: T5, Sentrin-specific protease 8 (Homo sapiens, UniProt Q96LD8); experiment: SENP8 protease inhibitors, SAR follow-up, biochemical, luminescence, set 2 (AID 588601)
T5 sequence (Q96LD8 whole entry): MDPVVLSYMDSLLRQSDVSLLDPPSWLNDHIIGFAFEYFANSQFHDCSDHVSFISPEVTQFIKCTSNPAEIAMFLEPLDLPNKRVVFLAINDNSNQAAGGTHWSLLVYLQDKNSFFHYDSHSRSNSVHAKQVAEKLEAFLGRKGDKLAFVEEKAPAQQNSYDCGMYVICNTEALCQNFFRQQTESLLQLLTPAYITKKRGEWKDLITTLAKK

[9] = molecular target: T6, Sentrin-specific protease 7 (Homo sapiens, UniProt Q9BQF6); experiment: SENP7 protease inhibitors, SAR follow-up, biochemical, luminescence, set 2 (AID 588600)
T6 sequence (Q9BQF6 whole entry): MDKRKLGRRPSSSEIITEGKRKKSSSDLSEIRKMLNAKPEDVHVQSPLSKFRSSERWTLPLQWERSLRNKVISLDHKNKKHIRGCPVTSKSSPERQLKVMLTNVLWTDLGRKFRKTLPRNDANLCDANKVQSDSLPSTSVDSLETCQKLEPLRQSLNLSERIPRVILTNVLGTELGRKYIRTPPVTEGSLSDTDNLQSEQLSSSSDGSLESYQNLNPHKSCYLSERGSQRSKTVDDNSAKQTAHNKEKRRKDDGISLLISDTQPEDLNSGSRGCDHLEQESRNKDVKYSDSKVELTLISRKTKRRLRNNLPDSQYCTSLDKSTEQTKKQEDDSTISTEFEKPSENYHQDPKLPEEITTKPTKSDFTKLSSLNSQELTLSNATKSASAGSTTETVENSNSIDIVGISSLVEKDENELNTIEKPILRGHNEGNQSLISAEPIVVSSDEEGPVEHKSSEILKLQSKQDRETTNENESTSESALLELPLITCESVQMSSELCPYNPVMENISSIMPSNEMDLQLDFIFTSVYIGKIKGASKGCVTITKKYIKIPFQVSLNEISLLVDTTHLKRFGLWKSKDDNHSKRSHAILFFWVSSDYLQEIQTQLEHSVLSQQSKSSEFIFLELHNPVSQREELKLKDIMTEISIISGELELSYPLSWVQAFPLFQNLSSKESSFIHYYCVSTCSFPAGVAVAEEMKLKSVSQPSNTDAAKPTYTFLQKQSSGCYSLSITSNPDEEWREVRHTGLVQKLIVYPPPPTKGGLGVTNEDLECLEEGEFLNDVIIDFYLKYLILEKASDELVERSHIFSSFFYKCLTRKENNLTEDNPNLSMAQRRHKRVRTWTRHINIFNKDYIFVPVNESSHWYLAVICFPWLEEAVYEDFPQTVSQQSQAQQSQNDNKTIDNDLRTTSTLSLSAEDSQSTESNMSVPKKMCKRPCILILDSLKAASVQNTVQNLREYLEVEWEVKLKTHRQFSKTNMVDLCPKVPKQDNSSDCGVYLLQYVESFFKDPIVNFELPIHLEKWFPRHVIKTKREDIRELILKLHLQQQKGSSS

[10] = molecular target: T7, Sentrin-specific protease 6 (Homo sapiens, UniProt Q9GZR1); experiment: SENP6 protease inhibitors, SAR follow-up, biochemical, luminescence, set 2 (AID 588598)
T7 sequence (Q9GZR1 whole entry): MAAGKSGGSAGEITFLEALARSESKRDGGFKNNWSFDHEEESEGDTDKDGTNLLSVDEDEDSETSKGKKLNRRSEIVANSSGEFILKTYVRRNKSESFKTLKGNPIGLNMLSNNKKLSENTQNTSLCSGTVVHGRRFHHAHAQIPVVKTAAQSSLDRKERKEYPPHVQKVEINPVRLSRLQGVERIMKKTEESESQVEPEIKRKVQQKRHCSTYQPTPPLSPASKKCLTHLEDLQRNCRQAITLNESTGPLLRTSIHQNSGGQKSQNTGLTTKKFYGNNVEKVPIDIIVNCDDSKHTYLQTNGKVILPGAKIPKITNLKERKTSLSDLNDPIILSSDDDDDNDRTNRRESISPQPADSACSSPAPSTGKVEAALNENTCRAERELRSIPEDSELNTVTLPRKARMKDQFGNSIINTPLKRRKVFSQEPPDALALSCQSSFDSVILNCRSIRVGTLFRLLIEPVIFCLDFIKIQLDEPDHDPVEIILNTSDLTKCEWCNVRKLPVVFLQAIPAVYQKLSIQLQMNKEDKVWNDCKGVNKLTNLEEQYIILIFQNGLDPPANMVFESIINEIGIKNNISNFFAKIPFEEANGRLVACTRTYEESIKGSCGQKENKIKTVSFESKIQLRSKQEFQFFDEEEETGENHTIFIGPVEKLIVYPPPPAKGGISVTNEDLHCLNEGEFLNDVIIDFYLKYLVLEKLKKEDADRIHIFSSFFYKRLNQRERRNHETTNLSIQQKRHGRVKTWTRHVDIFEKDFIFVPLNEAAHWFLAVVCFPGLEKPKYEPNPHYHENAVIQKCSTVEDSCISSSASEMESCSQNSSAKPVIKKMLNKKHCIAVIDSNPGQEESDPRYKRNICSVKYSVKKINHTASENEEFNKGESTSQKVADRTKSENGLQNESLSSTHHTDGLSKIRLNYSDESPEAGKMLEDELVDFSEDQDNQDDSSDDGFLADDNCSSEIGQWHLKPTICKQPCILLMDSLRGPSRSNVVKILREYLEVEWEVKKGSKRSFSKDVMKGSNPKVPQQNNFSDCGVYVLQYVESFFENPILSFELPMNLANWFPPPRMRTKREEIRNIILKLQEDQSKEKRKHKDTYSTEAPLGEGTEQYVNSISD

[11] = molecular target: DNA (cytosine-5)-methyltransferase 1 (Homo sapiens, UniProt P26358); experiment: DNMT1 methyltransferase inhibitors, confirmation, biochemical, fluorescent molecular beacon (AID 602386)
DNA (cytosine-5)-methyltransferase 1, sequence (P26358 whole entry): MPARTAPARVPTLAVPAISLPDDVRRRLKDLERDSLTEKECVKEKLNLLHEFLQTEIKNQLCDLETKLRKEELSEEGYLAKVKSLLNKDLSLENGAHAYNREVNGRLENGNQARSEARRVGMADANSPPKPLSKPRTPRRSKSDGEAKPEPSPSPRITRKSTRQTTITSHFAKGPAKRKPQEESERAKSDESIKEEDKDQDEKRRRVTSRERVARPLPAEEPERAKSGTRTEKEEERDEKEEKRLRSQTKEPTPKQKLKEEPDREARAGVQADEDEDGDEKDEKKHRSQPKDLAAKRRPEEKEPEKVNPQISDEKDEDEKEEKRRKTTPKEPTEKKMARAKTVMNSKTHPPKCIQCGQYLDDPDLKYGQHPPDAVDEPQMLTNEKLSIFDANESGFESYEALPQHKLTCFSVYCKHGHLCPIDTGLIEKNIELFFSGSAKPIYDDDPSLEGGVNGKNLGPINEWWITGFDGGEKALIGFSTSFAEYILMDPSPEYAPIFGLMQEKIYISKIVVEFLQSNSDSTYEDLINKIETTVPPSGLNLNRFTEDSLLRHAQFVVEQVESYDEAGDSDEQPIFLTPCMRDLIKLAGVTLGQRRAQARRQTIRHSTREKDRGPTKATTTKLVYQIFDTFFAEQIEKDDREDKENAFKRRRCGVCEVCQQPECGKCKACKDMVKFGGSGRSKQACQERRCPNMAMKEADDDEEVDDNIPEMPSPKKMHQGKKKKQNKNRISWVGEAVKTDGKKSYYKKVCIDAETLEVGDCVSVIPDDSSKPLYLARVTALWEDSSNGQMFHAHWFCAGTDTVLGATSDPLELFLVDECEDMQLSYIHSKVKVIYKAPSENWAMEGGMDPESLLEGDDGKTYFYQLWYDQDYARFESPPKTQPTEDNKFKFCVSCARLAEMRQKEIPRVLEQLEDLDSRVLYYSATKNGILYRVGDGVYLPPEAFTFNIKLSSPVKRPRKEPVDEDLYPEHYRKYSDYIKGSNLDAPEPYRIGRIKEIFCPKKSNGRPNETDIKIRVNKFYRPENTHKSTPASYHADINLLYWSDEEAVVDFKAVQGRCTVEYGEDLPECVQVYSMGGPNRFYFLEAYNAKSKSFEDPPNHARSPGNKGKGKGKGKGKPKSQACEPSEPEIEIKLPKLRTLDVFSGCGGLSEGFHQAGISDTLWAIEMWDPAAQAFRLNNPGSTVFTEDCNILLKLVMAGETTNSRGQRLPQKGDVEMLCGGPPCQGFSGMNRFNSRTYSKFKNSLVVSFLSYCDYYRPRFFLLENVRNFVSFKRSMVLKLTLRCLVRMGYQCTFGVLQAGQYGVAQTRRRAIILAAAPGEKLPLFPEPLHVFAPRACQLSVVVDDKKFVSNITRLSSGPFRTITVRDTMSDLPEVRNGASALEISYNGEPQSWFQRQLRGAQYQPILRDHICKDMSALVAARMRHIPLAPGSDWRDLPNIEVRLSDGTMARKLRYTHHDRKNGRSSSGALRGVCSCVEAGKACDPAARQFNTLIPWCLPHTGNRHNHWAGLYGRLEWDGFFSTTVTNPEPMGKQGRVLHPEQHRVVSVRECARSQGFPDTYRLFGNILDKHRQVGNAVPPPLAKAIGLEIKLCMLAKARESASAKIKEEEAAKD

[12] = molecular target: Mitochondrial peptide methionine sulfoxide reductase (Bos taurus, UniProt P54149); experiment: Absorbance-based biochemical high throughput dose response assay for activators of Methionine sulfoxide reductase A (MsrA).
Mitochondrial peptide methionine sulfoxide reductase, sequence (P54149 whole entry): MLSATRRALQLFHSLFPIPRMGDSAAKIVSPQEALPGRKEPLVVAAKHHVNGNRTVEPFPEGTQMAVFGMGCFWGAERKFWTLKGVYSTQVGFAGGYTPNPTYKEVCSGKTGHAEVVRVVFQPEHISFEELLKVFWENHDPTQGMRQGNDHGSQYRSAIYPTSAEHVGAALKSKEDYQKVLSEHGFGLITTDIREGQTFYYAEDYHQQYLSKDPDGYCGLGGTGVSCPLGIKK

Aurora kinase A, sequence (O14965 whole entry): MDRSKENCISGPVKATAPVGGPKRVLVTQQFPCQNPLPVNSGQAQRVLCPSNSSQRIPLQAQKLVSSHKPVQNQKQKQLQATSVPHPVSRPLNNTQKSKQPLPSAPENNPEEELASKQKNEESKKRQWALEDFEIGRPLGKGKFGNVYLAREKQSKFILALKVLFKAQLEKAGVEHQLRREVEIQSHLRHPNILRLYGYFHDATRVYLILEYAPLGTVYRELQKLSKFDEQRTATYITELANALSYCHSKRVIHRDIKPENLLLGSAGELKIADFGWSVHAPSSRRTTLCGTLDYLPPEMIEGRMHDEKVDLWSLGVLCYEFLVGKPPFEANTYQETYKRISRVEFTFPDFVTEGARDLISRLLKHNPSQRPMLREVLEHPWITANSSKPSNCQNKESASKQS
Aurora kinase B, sequence (Q96GD4 whole entry): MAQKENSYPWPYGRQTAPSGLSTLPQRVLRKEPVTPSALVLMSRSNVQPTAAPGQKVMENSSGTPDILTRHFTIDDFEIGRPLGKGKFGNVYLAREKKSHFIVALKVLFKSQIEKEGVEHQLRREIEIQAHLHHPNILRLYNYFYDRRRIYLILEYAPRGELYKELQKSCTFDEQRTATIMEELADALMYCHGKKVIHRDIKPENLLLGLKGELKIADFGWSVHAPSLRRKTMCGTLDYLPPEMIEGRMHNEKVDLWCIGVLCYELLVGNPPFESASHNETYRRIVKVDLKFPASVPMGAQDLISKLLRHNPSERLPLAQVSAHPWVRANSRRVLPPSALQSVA

Cc1oc2ncnc(N)c2c1-c1ccc(NC(=O)Nc2cc(C(F)(F)F)ccc2F)cc1
Ki (Aurora kinase A): 0.126 µM (active)
Ki (Aurora kinase B): 0.00794 µM (active)

Cc1ccccc1Cn1ncc(Cl)c(C(C#N)c2ccccc2)c1=O (configuration not stated)
IC50 [1]: 0.484 µM (active)
IC50 [2]: 0.484 µM (active)

N#CC(c1ccc(Cl)cc1F)c1c(Cl)cnn(Cc2cccc3ccccc23)c1=O (configuration not stated)
IC50 [1]: 0.594 µM (active)
IC50 [2]: 0.594 µM (active)

COc1ccc(-c2cc3nc(-c4ccccc4)cc(N4CCC5(CC4)OCCO5)n3n2)cc1
IC50 (CHO-K1): > 66.2 µM (inactive)
IC50 [3]: > 49.8 µM (inactive)
IC50 [4]: 5.7 µM (active)
IC50 [5]: 23.6 µM (inactive)
IC50 (Orexin receptor type 2 [6]): 10.8 µM (inactive)
IC50 (Orexin receptor type 2 [7]): > 50 µM (inactive)

CC1CN(C(=O)C(=O)c2c[nH]c3ccccc23)CC(C)O1 (configuration not stated)
IC50 (Caspase-3): > 99 µM (inactive)
IC50 [8]: > 99 µM (inactive)
IC50 [9]: > 99 µM (inactive)
IC50 [10]: > 99 µM (inactive)

COCc1c(C(=O)Nc2nc3ccc(C)cc3s2)sc2cccc(F)c12
IC50 (Caspase-3): > 99 µM (inactive)
IC50 [8]: > 99 µM (inactive)
IC50 [9]: > 99 µM (inactive)
IC50 [10]: > 99 µM (inactive)

O=C1C(=O)c2c(ccc3ccccc23)-c2ccccc21
IC50 [11]: 1.34 µM (active)
EC50 [12]: > 104 µM (inactive)

— ChEMBL document CHEMBL1201862, “PubChem BioAssay data set” (2004)
